Data reported in US20030114460A1, “Pharmaceutical conjugates with enhanced pharmacokinetic characteristics” (priority 2001, published 2003).
Where two headings read alike, the source gives them in different places.

Columns and labels:
CMV retinitis = experiment: Patient case, CMV retinitis (Example 5); format: in vivo, human
Excerpt: A person complains of gradual onset of floaters and progressive reduction of vision in both eyes, but without pain. The patient has been HIV+ for 7 years, and was recently hospitalized for Cryptococcal pneumonia. The patient is taking AZT, ddI, indinivir, and has been for the past three years, with moderate compliance. […] Granular hemorrhagic areas are noted throughout the retina, with a “brushfire” appearance. […] These findings are all evidence of CMV retinitis, secondary to AIDS. Ganciclovir-conjugate 0.5% 1 drop four times daily in both eyes is prescribed. At a two-week follow-up examination, the patient states full compliance with the treatment protocol. The patient also states an improvement in vision with a reduced number of floaters. […] The patient is advised to continue the ganciclovir-conjugate drops indefinitely.

fungal corneal ulcer = experiment: Patient case, fungal corneal ulcer (Example 3); format: in vivo, human; details: next day; 5% natamycin drops each hour (day) / every two hours (night) with 5% homatropine four times each day
Protocol: A […] […] […] comes to a clinic complaining of severe pain, redness, tearing, and photophobia in […] left eye. One day before, the patient was hit by a tree twig while playing football in the park. Severe conjunctival hyperemia with clear discharge is observed. […] Intraocular pressure is also elevated (20 mmHg) by Goldman tonometry. A fungal corneal ulcer is diagnosed. The patient is administered 5% natamycin drops each hour during the day and every two hours at night and 5% homatropine four times each day for […] left eye. […] The patient is experiencing blurriness in the left eye. […] The extent of Na Fl stain is also enlarged. The patient is given 0.15% amphotericin B drops and 5% ketoconazole-conjugate drops once daily in both eyes. […] 5% natamycin drops every two hours are administered around the clock, as well as 5% homatropine two times daily, and 5% ketoconazole-conjugate drops once daily.

[1] = format: in vivo, human
Protocol: A person receives a routine eye examination. […] With their habitual spectacle correction, their best corrected visual acuities are 20/20 in both eyes. Their pupils are found to be round, equally reactive to light, and without any presence of afferent pupillary defect. […] Their intraocular pressures are measured at 32 mmHg in both eyes (with the Goldmann tonometer at 3 pm). […] A Humphrey C-20 automated threshold visual field test indicates the presence of generalized depression in both eyes. […] Their blood pressure is 125/85 and their pulse rate is 60 beats/min. Because of the enlarged cup to disc ratio, elevated intraocular pressures, and the generalized depression of the threshold visual fields, they are diagnosed with open angle glaucoma. Timolol 0.5% 1 drop two times daily in both eyes is prescribed for two weeks. The patient is to return in two weeks for a follow-up evaluation. At the follow-up evaluation, they state that they have been compliant with the prescribed therapy. Their intraocular pressure is measured at 28 mmHg at 1 pm with the Goldmann tonometer. Their blood pressure is 118/86 and their pulse rate is 65 beats/min. Bromonidine-conjugate 0.2% 1 drop two times daily in both eyes is added to the treatment regimen. After another two weeks, the patient has a follow-up evaluation, during which, the patient's intraocular pressure measures 18 mmHg in the right eye, and 17 mmHg in the left eye. Their blood pressure and pulse rate remain normal. The patient is re-evaluated every 3 months with the continuation of combination therapy.

[2] = Ocular tissue concentrations after oral and topical dosing; format: in vivo, Rabbits; details: rabbit, retina, read-out: retinal memantine concentration
Protocol: Ocular tissue concentrations were also determined after oral and topical dosing. Rabbits were dosed topically with 35 μl of a 0.1% aqueous solution of memantine twice a day for 7 days. Another subset of rabbits was dosed orally with 2 mg/kg memantine for seven days. At the end of the dosing period ocular tissue concentrations were quantified. The retinal memantine concentrations from topical and oral dosing were essentially equivalent (107 ng/ml and 108 ng/ml, respectively).

[3] = Apparent octanol/water partition coefficient; format: physicochemical; details: memantine HCl, printed as Log 3.0
Excerpt: (§1) For example, memantine may be employed as an EEC in accordance with this invention. […] The memantine HCl apparent octanol/water partition coefficient is Log 3.0. The high apparent partition and high solubility appear contradictory. However, the charged amine of memantine HCl (pKa 10.27) results in the high solubility while the free base results in the high partitioning of memantine into octanol. As the HCl salt and free base are in equilibrium, permeation of the free base through biologic tissues results. The impact of a high solubility and a high partition coefficient of the free base are a high bioavailability.

[4] = Autoradiography of the eye after topical ophthalmic instillation; format: in vivo, albino and pigmented rabbits
Protocol: General disposition of topical ophthalmic 1-amino-3,5-dimethyladamantane hydrochloride (memantine) instillation was assessed by autoradiography. Briefly, albino and pigmented rabbits were dosed via topical ophthalmic instillation with a 0.74% aqueous isotonic memantine solution, pH 7.4. After dosing autoradiographic sections of the eye were acquired at 0.25, 0.5, 1, and 2 and 24 hours post dosing. […] Further, a qualitative assessment of residence time could be made from the data.

pKa of the charged amine = format: physicochemical; details: charged amine of memantine HCl
Excerpt: as §1

[5] = Aqueous solubility of memantine HCl; format: physicochemical; details: HCl salt, pH 6.5 aqueous solution
Excerpt: as §1

For `CC12CC3CC(N)(C1)CC(C(=O)OCC(CO)OCn1cnc4c(=O)[nH]c(N)nc41)(C3)C2` (stereo not shown) [Ganciclovir-conjugate], the clinical outcome (CMV retinitis; one month follow-up, same regimen) was “complete remission of ocular manifestations of CMV retinitis” and the ophthalmic examination outcome (CMV retinitis; two-week follow-up, 0.5% 1 drop four times daily in both eyes) was “reduction in hemorrhages around the retinal vessels and cotton wool spots”.

In the case of `C[C@@H]1C/C=C/C=C/C=C/C=C/[C@H](O[C@@H]2O[C@H](C)[C@@H](O)[C@H](N)[C@@H]2O)C[C@@H]2O[C@](O)(C[C@@H](O)C[C@H]3O[C@@H]3/C=C/C(=O)O1)C[C@H](O)[C@H]2C(=O)O` [natamycin], the clinical outcome (fungal corneal ulcer) is reported as “symptoms have not improved”.

For `CC(C)(C)NC[C@H](O)COc1nsnc1N1CCOCC1` [Timolol], the intraocular pressure ([1]; after two weeks of Timolol 0.5% 1 drop two times daily, both eyes, baseline 32 mmHg, Goldmann tonometer) was 28 mmHg, the blood pressure ([1]; human, in vivo) was 118/86 and the pulse rate ([1]; human, in vivo) was 65 beats/min.

In the case of `CC12CC3CC(C)(C1)CC(N)(C3)C2.Cl` [memantine, 1-amino-3,5-dimethyladamantane hydrochloride], the concentration at 7 days ([2]; 35 μl of a 0.1% aqueous solution, topical, 35 μl of 0.1% aqueous solution twice a day for 7 days) is reported as 107 ng/mL, the concentration at 7 days ([2]; oral, 2 mg/kg for seven days) is reported as 108 ng/mL and the “apparent octanol/water partition coefficient (Log)” value [3] is reported as 3.0. For the same compound, the “tissue distribution after topical dosing (autoradiography)” value ([4]; 0.74% aqueous isotonic solution pH 7.4, topical ophthalmic, sections 0.25-24 h post dosing) was “present in the posterior sclera, choroids and/or retina”, the “half-life in the posterior globe (qualitative)” value ([4]; albino and pigmented rabbits, topical ophthalmic 0.74% solution) was “relatively long” and the “binding to ocular melanin (autoradiography intensity in pigmented tissues)” value ([4]; pigmented tissues, topical ophthalmic 0.74% solution) was “bound to the ocular melanin”. For the same compound, the “route of penetration from topical delivery (autoradiography)” value ([4]; topical delivery) was “trans-retinal route of penetration across the blood-retinal barrier”, the pKa (pKa of the charged amine) was 10.3 and the solubility [5] was 3.5%. The “binding to natural and synthetic melanin” value (In-vitro melanin binding) was “strongly bound”.
